Where two headings read alike, the source gives them in different places.
Experiments:
VIM-1 = VIM-1 (Pseudomonas aeruginosa, UniProt A0A0F7KYQ8); test: Inhibitory activity on MBL, fluorescent substrate FC-5; format: biochemical
AmpC = AmpC (UniProt P24735); test: Inhibitory activity on SBL, fluorescent substrate FC-5; settings: read-out: Inhibitory activity on SBL AmpC (IC50 class)
KPC-2 = KPC-2 (Klebsiella pneumoniae, UniProt Q9F663); test: as above; format: biochemical; settings: for IC50: read-out: Inhibitory activity on SBL KPC-2 (IC50 class)
Chain of KPC-2 (Q9F663 25-293 limits assumed): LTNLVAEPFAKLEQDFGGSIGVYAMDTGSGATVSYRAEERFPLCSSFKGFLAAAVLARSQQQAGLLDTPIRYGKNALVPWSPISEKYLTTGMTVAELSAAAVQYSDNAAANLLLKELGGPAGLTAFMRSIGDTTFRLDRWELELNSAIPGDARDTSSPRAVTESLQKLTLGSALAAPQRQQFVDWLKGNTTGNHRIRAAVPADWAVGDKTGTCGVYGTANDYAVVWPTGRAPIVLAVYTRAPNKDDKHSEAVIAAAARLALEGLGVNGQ

TEM-1 = TEM-1 (Escherichia coli, UniProt P62593); test: as above; format: biochemical; settings: for IC50: read-out: Inhibitory activity on SBL TEM-1 (IC50 class)
Chain of TEM-1 (P62593 24-286 limits assumed): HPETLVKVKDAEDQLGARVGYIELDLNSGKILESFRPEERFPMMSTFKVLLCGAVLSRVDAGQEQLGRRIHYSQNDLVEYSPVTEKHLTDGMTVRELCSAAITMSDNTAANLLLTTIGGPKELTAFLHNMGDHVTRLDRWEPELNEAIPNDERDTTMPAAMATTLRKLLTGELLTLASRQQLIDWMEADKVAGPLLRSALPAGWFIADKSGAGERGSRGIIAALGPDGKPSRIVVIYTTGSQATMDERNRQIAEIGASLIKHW

IMP-1 = IMP-1 (Serratia marcescens, UniProt P52699); test: Inhibitory activity on MBL, fluorescent substrate FC-5; format: biochemical
Chain of IMP-1 (P52699 19-246 limits assumed): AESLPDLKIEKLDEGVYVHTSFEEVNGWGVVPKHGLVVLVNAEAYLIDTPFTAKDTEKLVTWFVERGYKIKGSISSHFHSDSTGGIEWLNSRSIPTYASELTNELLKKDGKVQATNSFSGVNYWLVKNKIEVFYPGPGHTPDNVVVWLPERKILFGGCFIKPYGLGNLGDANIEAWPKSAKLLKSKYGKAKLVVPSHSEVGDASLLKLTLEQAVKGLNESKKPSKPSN

NDM-5 = NDM-5 (Klebsiella pneumoniae, UniProt C7C422, M154L/V88L); test: as above; format: biochemical
Chain of NDM-5 (C7C422 29-270 V88L/M154L): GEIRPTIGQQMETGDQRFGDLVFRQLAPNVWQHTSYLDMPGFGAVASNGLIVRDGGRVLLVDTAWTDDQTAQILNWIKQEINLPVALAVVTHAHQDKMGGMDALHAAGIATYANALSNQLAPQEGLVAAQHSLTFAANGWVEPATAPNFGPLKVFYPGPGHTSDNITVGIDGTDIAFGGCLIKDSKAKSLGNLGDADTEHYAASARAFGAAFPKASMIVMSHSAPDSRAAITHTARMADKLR

CTX-M-14 = CTX-M-14 (Escherichia coli, UniProt Q9L5C7); test: Inhibitory activity on SBL, fluorescent substrate FC-5; format: biochemical; settings: for IC50: read-out: Inhibitory activity on SBL CTX-M-14 (IC50 class)
Chain of CTX-M-14 (Q9L5C7 entry or part of it): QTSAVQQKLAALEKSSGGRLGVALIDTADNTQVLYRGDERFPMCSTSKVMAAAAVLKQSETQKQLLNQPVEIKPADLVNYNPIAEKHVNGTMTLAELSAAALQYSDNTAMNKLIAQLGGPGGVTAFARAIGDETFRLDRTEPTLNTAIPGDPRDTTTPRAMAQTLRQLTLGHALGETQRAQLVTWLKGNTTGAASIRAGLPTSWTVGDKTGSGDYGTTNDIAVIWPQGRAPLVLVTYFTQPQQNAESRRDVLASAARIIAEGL

OXA-48 = OXA-48 (Klebsiella pneumoniae, UniProt Q6XEC0); test: as above; format: biochemical; settings: for IC50: read-out: Inhibitory activity on SBL OXA-48 (IC50 class)
Chain of OXA-48 (Q6XEC0 23-265 limits assumed): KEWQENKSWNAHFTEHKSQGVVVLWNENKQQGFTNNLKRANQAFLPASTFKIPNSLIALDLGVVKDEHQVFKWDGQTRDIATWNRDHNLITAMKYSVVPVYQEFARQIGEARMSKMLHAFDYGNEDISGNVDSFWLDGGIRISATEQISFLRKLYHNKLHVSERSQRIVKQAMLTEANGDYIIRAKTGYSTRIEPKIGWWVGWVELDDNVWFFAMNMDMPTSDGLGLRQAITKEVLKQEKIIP

NDM-1 = NDM-1 (Klebsiella pneumoniae, UniProt C7C422); test: Inhibitory activity on MBL, fluorescent substrate FC-5; format: biochemical
Chain of NDM-1 (C7C422 29-270 limits assumed): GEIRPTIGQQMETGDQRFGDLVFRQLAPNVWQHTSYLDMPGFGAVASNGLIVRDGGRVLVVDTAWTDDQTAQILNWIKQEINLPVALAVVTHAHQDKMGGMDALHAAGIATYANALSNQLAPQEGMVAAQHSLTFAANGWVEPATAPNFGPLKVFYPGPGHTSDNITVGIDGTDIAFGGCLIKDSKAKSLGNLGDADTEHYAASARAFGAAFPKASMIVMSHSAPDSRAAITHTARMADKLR

VIM-2 = VIM-2 (Escherichia coli, UniProt Q5U7L7); test: as above; format: biochemical; settings: read-out: Inhibitory activity on MBL VIM-2 (IC50 class)
SHV-12 = target: T1, SHV-12 (UniProt P0AD64, L31Q/G234S/E235K, species not given); test: Inhibitory activity on SBL, fluorescent substrate FC-5; format: biochemical; settings: read-out: Inhibitory activity on SBL SHV-12 (IC50 class)
T1 sequence (P0AD64 1-286 L31Q/G234S/E235K): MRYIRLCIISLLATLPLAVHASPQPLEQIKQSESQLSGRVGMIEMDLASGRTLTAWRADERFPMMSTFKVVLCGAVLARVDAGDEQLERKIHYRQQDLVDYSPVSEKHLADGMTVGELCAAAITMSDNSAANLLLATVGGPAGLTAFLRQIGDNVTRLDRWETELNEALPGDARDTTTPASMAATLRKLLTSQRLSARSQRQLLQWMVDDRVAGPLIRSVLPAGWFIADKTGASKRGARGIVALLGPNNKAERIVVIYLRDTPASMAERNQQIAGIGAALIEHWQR

[1] = read-out: Inhibitory activity on MBL VIM-1 (IC50 class)
[2] = read-out: Inhibitory activity on MBL IMP-1 (IC50 class)
[3] = read-out: Inhibitory activity on MBL NDM-5 (IC50 class)
[4] = read-out: Inhibitory activity on MBL NDM-1 (IC50 class)
[5] = VIM-1 and/or VIM-2, read-out: inhibitory activity at a nanomolar-level on VIM-1 and/or VIM-2
[6] = read-out: inhibitory activity at a nanomolar-level on NDM-5
[7] = read-out: inhibitory activity at a nanomolar-level on NDM-1
[8] = IMP-1 and/or IMP-4, read-out: inhibitory activity at a nanomolar-level on IMP-1 and/or IMP-4

SMILES | IC50 (VIM-1; [1]) [nM] | IC50 (AmpC) [nM] | IC50 (KPC-2) [nM] | IC50 (TEM-1) [nM] | IC50 (IMP-1; [2]) [nM] | IC50 (NDM-5; [3]) [nM] | IC50 (CTX-M-14) [nM] | IC50 (OXA-48) [nM] | IC50 (NDM-1; [4]) [nM] | IC50 (VIM-2) [nM] | IC50 (VIM-1; [5]) [nM] | IC50 (NDM-5; [6]) [nM] | IC50 (NDM-1; [7]) [nM] | IC50 (SHV-12) [nM] | other results
N=C(N)N1Cc2cnn(Cc3ccc4c(c3C(=O)O)OB(O)CC4)c2C1 [Compound 67] | 1000 to 100000 | > 100000 | < 10 | 10 to 1000 | 1000 to 100000 | 1000 to 100000 | 10 to 1000 | < 10 | 10 to 1000 | 10 to 1000 |  |  |  |  | 
O=C(O)c1c(Cn2cc(-c3ccccc3)nn2)ccc2c1OB(O)CC2 [Compound 12] | 1000 to 100000 | > 100000 | < 10 | 10 to 1000 | 1000 to 100000 | 10 to 1000 | 10 to 1000 | < 10 | 10 to 1000 | 10 to 1000 | < 1000 | < 1000 | < 1000 |  | 
NCCc1ccc(-c2cn(Cc3ccc4c(c3C(=O)O)OB(O)CC4)nn2)cc1 [Compound 65] |  | 1000 to 100000 | < 10 |  |  |  |  |  |  |  |  |  |  |  | 
O=C(O)c1c(Cn2ccc3cncnc32)ccc2c1OB(O)CC2 [Compound 55] | 1000 to 100000 | 1000 to 100000 | < 10 | < 10 | 10 to 1000 | 10 to 1000 | < 10 | 10 to 1000 | 10 to 1000 | 10 to 1000 |  | < 1000 | < 1000 |  | IC50 (IMP-1; [8]): < 1000 nM
NS(=O)(=O)NCCc1cn(Cc2ccc3c(c2C(=O)O)OB(O)CC3)nn1 [Compound 51] | 1000 to 100000 |  | < 10 | 10 to 1000 | 1000 to 100000 | 10 to 1000 | 10 to 1000 | < 10 | 10 to 1000 | 10 to 1000 |  | < 1000 | < 1000 | 10 to 1000 | 
NC(=O)c1ccn(Cc2ccc3c(c2C(=O)O)OB(O)CC3)n1 [Compound 20] | 10 to 1000 |  | < 10 | < 10 | 1000 to 100000 | 10 to 1000 | 10 to 1000 | < 10 | 10 to 1000 | 10 to 1000 | < 1000 | < 1000 | < 1000 | 10 to 1000 | 
NC1(c2cnn(Cc3ccc4c(c3C(=O)O)OB(O)CC4)c2)CC1 [Compound 40] | 1000 to 100000 |  | < 10 | < 10 | 1000 to 100000 | 10 to 1000 | 10 to 1000 | 10 to 1000 | 1000 to 100000 | 10 to 1000 |  |  |  | 10 to 1000 | 
O=C(O)c1c(Cn2cc(F)cn2)ccc2c1OB(O)CC2 [Compound 15] | 1000 to 100000 |  | < 10 | 10 to 1000 | 1000 to 100000 | 10 to 1000 | 10 to 1000 | 10 to 1000 | 10 to 1000 | 10 to 1000 | < 1000 | < 1000 | < 1000 | 10 to 1000 | 
O=C(O)c1c(Cn2cccn2)ccc2c1OB(O)CC2 [Compound 14] | 1000 to 100000 |  | < 10 | 10 to 1000 | 1000 to 100000 | 10 to 1000 | < 10 | < 10 | 10 to 1000 | 10 to 1000 | < 1000 | < 1000 | < 1000 | 10 to 1000 | 
O=C(O)c1c(Cn2ncc3ccccc32)ccc2c1OB(O)CC2 [Compound 22] | 10 to 1000 | 1000 to 100000 | < 10 | 10 to 1000 | 10 to 1000 | 10 to 1000 | 10 to 1000 | < 10 | 10 to 1000 | 10 to 1000 | < 1000 | < 1000 | < 1000 |  | IC50 (IMP-1; [8]): < 1000 nM
NS(=O)(=O)N1Cc2cn(Cc3ccc4c(c3C(=O)O)OB(O)CC4)nc2C1 [Compound 57] | 10 to 1000 |  | < 10 | < 10 | 1000 to 100000 | 10 to 1000 | < 10 | < 10 | 10 to 1000 | 10 to 1000 | < 1000 | < 1000 | < 1000 | 10 to 1000 | 
NC1CCC(c2cn(Cc3ccc4c(c3C(=O)O)OB(O)CC4)nn2)CC1 (centres unmarked) [Compound 11] | 1000 to 100000 | > 100000 | < 10 | 10 to 1000 | 1000 to 100000 | 10 to 1000 | 10 to 1000 | < 10 | 10 to 1000 | 10 to 1000 | < 1000 | < 1000 | < 1000 |  | 
NCCCc1cn(Cc2ccc3c(c2C(=O)O)OB(O)CC3)nn1 [Compound 9] | 1000 to 100000 | > 100000 | < 10 | 10 to 1000 | 1000 to 100000 | 10 to 1000 | 10 to 1000 | < 10 | 1000 to 100000 | 10 to 1000 | < 1000 |  |  |  | 
NS(=O)(=O)Nc1cnn(Cc2ccc3c(c2C(=O)O)OB(O)CC3)c1 [Compound 34] | 1000 to 100000 |  | < 10 | < 10 | 1000 to 100000 |  | < 10 | < 10 | 10 to 1000 | 10 to 1000 |  |  | < 1000 | 10 to 1000 | IC50 (NDM-5; Inhibitory activity on MBL NDM-5 (IC50 class)): 10 to 1000 nM; IC50 (NDM-5; inhibitory activity at a nanomolar-level on NDM-5): < 1000 nM
N=C(N)N1CC(c2cn(Cc3ccc4c(c3C(=O)O)OB(O)CC4)nn2)C1 [Compound 49] | 1000 to 100000 | 1000 to 100000 | < 10 | 10 to 1000 | 10 to 1000 | 10 to 1000 | 10 to 1000 | 10 to 1000 | 10 to 1000 | 10 to 1000 |  | < 1000 | < 1000 |  | IC50 (IMP-1; [8]): < 1000 nM
O=C(O)c1c(Cn2cc3c(n2)CNC3)ccc2c1OB(O)[C@H]1C[C@@H]21 [Compound 54] | 1000 to 100000 |  | 10 to 1000 | 1000 to 100000 | 1000 to 100000 | 10 to 1000 | 10 to 1000 | 10 to 1000 | 10 to 1000 | 10 to 1000 |  | < 1000 | < 1000 | 10 to 1000 | 
N=C(N)NCCc1cn(Cc2ccc3c(c2C(=O)O)OB(O)CC3)nn1 [Compound 10] | 1000 to 100000 | > 100000 | < 10 | 10 to 1000 | 1000 to 100000 | 10 to 1000 | 10 to 1000 | < 10 | 10 to 1000 | 10 to 1000 | < 1000 | < 1000 | < 1000 |  | 
NCCNCc1cnn(Cc2ccc3c(c2C(=O)O)OB(O)CC3)c1 [Compound 35] | 1000 to 100000 |  | 10 to 1000 | < 10 | 1000 to 100000 | 10 to 1000 | 10 to 1000 | < 10 | 1000 to 100000 | 10 to 1000 |  |  |  | 10 to 1000 | 
N#Cc1cnn(Cc2ccc3c(c2C(=O)O)OB(O)CC3)c1 [Compound 17] | 1000 to 100000 |  | < 10 | < 10 | 1000 to 100000 | 10 to 1000 | 10 to 1000 | < 10 | 10 to 1000 | 10 to 1000 | < 1000 | < 1000 | < 1000 | 10 to 1000 | inhibitory activity on KPC-2 compared to avibactam (KPC-2; comparison in words): better or comparable; inhibitory activity on TEM-1 compared to avibactam (TEM-1; comparison in words): better or comparable; inhibitory activity on CTX-M-14 compared to avibactam (CTX-M-14; comparison in words): better or comparable; inhibitory activity on OXA-48 compared to avibactam (OXA-48; comparison in words): better or comparable

— patent US20250205259A1, “CLASS OF 7-((FIVE-MEMBERED HETEROCYCLIC)METHYL)-8-CARBOXYLIC ACID-BENZO CYCLIC BORATE DERIVATIVES AND USES THEREOF” (priority 2022, published 2025)
